Test results published in the METLIN SMRT retention time set (Domingo-Almenara et al. 2019).

Experiment: gradient 5% acetonitrile 3 min, to 50% in 2 min, to 85% in 15 min, held 3 min, 100 µL/min
Settings: column: Zorbax Extend-C18 2.1 x 50 mm; eluents: water / acetonitrile, 0.1% formic acid
Summary of the method: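 A Zorbax Extend-C18 column (2.1 × 50 mm, 1.8 μm) run at 100 μL/min with water and acetonitrile, both containing 0.1% formic acid, separated mixtures of ~100 pure standards. The HPLC was coupled to a quadrupole time-of-flight mass spectrometer operated in positive and negative ionization mode, with dead and dwell volumes of 40 μL and 900 μL. Each retention time was taken from a computationally picked adduct peak that was then manually inspected.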

RP-LC retention time [s] | Compound
850 | CCC(CC)C(=O)N1CCC2(CC1)C(=O)N(C)c1ccccc12
940 | CCOC(=O)c1nc(Nc2cccc(SC)c2)c2ccccc2n1
816 | Cc1cc(C)cc(NC(=O)C2CCN(C(=O)c3ncn4c3COC(c3ccc(F)cc3)C4)CC2)c1 (centres undefined)
625 | COCCCNC(=O)c1csc(-c2cnccn2)n1
616 | COCCN1C(=O)[C@H]2CN(Cc3ccc(OC)c(Br)c3)C[C@H]2C1=O
767 | Cc1onc(-c2ccccc2Cl)c1C(=O)Nc1nnc(-c2cccs2)o1
727 | CC(=O)N1CCc2sc(S(=O)(=O)NCc3ccc4c(c3)OCO4)cc2C1
572 | CN1CCN(C(=O)c2cc(-c3cccs3)n(CC(=O)NCc3ccco3)n2)CC1
810 | COc1ccc(CNC(=O)Cn2c(=O)cc(-c3nc(C)no3)c3ccccc32)cc1
597 | COc1ccccc1C(=O)Nc1c(-c2ccccc2)nc2ccccn12
628 | COc1cccc(NC(=O)N2CCN(c3cc(C)nc(N4CCOCC4)n3)CC2)c1
1150 | CCCCc1ccc(N2C=C(C#N)S(=O)(=O)c3ccccc32)cc1
655 | O=C(Cn1cnc2nc(N3CCC(C(=O)NC4CC4)CC3)sc2c1=O)Nc1ccc(F)cc1
910 | CN1C(=O)c2cc(S(=O)(=O)Nc3ccc(F)c(F)c3)ccc2Oc2cccnc21
995 | Cc1nc(-c2cn(C(C)C)c3ncccc23)sc1C(=O)NCc1ccccc1
636 | CCc1ccc2[nH]c3c(c(=O)c2c1)CN(CC(=O)Nc1ccc(OC)c(Cl)c1)CC3
950 | Cc1ccc(C)n1-c1nnc(N2CCCC(C(=O)NCCc3c[nH]c4ccccc34)C2)s1 (centres undefined)
730 | O=C(C1=CN(c2cccc(F)c2)c2ccccc2S1(=O)=O)N1CCOCC1
612 | CC1(c2noc(C3CCOCC3)n2)CCN(Cc2c(F)cccc2Cl)CC1
779 | O=C(Cn1nc2c(N3CCOCC3)nccn2c1=O)Nc1ccc(Br)cc1F
875 | Cc1cc(C(=O)N2CCN(c3ccccc3Cl)CC2)nc2ccnn12
635 | O=C(/C=C/c1cccnc1)/C=C/c1cccnc1
1060 | CCCN1C(=O)c2cc(S(=O)(=O)Nc3ccc(F)cc3)ccc2Oc2cccnc21

RP-LC retention time [s] | Compound
902 | O=C(c1cc(F)ccc1F)N1CCC2(CC1)N=C(c1ccc(Cl)cc1)NO2
738 | O=C(Cn1cccc1-c1nc(-c2ccc3c(c2)OCO3)no1)Nc1ccc(Cl)cc1F
649 | COc1ccc(C2Cn3cnc(C(=O)N4CCC(C(=O)NCC5CC5)CC4)c3CO2)cc1 (centres undefined)
1420 | CCOc1nc2ccccc2nc1N1CCCC(C(=O)Nc2ccc(Br)c(C)c2)C1 (centres undefined)
819 | CNC(=O)N1CCCC(c2cccc(C(=O)NCc3cccc(Br)c3)c2)C1 (centres undefined)
855 | CCOc1ccc(NC(=O)N2CCCC(C)(C(=O)NCc3ccccc3C)C2)cc1 (centres undefined)
1100 | O=c1ccc(-c2ccc3c(c2)OCO3)nn1Cc1nc(-c2ccc(F)c(Br)c2)no1
925 | Cn1nc(C2CCN(S(=O)(=O)c3cccc(Cl)c3)CC2)n(C2CCCC2)c1=O
672 | Cn1cc(-c2ccncc2)cc1C(=O)NCc1ccccc1C(F)(F)F
664 | CCN(CC)CCCNC(=O)C(C)n1c(=O)c(C(F)(F)F)nc2ccccc21 (centres undefined)
808 | O=C(Cc1nnc(-c2cccc(F)c2)o1)Nc1ccccc1
892 | CCS(=O)(=O)N1CC(=O)N(c2cc(C)cc(C)c2)C(C)(C(=O)NCc2ccc(F)cc2)C1 (centres undefined)
633 | CCOC(=O)C1CCN(c2cc3c(cc2NC(=O)NC)n(C)c(=O)n3C)CC1
931 | CCOc1ccc(N2CC(c3nc(-c4ccccc4C)no3)CC2=O)cc1 (centres undefined)
866 | Cc1ccc(-c2nc3ncccn3c2Nc2cc(C)cc(C)c2)cc1
774 | O=C(CCn1cnc2cc(-c3noc(/C=C/c4cccs4)n3)ccc21)N1CCCC1
926 | Cc1ccc(NS(=O)(=O)c2ccc(-c3nnc(C4CCC4)o3)o2)cc1
774 | Cn1nc(CC(=O)Nc2ccccc2Br)c2ccccc2c1=O
1040 | CCn1cc(C(=O)Nc2ccc(F)c(C)c2)c(S(=O)(=O)N2CCSCC2)n1
728 | O=C(CC1CCN(C(=O)c2ccc3oc(-c4ccccc4)nc3c2)CC1)NC1CC1
689 | COc1ccc(Cl)cc1S(=O)(=O)N1CCCC(C(N)=O)C1 (centres undefined)
670 | Cn1c(=O)sc2cc(S(=O)(=O)N3CCC(C(=O)NC4CC4)CC3)ccc21
704 | O=C(N1CCC(NS(=O)(=O)c2cccc(F)c2)CC1)N1C[C@H]2C[C@H](C1)[C@H]1CCCC(=O)N1C2

RP-LC retention time [s] | Compound
1070 | COc1ccc(C2Cn3nnc(-c4nc(-c5ccsc5)no4)c3CO2)cc1 (centres undefined)
1130 | O=C(NCC1CCCCC1)c1ccc(-c2nc3cccnc3n2C2CCCCC2)cc1
829 | CCn1ncc(NC(=O)c2ccccc2OC)c(N2CCOCC2)c1=O
1060 | CC(C)c1ccc(S(=O)(=O)N2CCC(n3c(-c4ccco4)nc4cccnc43)C2)cc1 (centres undefined)
985 | CCc1cccc(NS(=O)(=O)c2ccc(-c3c(C)noc3C)cc2)c1
770 | COCc1nncn1C1CCN(S(=O)(=O)c2ccc(C)c(Cl)c2)CC1
888 | Cc1nn(Cc2ccc(C(=O)NCC3CC3)cc2)c(C)c1S(=O)(=O)N1CCC(C)CC1
628 | COc1ncc(C(=O)N2CCCCC2)cn1
827 | CCCC(C)NC(=O)c1ccc2c(c1)CCCN2S(C)(=O)=O (centres undefined)
1260 | O=S(=O)(c1ccc(-c2noc(-c3ccc(Cl)cc3)n2)cc1)N1CCCC1
632 | COCCC1(NC(=O)C2CCOCC2)CCN(C(=O)C2CC=CC2)CC1
1220 | O=C(Nc1ccc(F)cc1)c1c(O)c2cccnc2n(-c2cccc(F)c2)c1=O
743 | CCCCNC(=O)CN1C(=O)C2CCCCN2c2ccc(C(=O)N3CCCC3)cc21 (centres undefined)
958 | CCc1ccccc1NC(=O)N1CC=C(c2cn(C(C)C)c3ncccc23)CC1
1010 | Cn1ncc2c(N3CCSCC3)nc(C(=O)Nc3cccc(OC(F)(F)F)c3)nc21
765 | CCC(=O)N1CCc2c(C(=O)NC3CCCC3)cccc21
747 | O=C(Cc1c(F)cccc1Cl)NC1CCN(c2cc(-c3cccs3)[nH]n2)C1 (centres undefined)
891 | O=C(Nc1cnn(-c2ncc(N3CCCCC3)cn2)c1)Nc1ccccc1C(F)(F)F
660 | O=C(NC1CCN(c2cc(-c3ccccc3)[nH]n2)C1)c1ccsc1 (centres undefined)
612 | CCOC(=O)N1CCC(N2CCCC(COc3ccccc3C(=O)N3CCCC3)C2)CC1 (centres undefined)
1030 | CC1CN(c2nc(-c3ccc([N+](=O)[O-])cc3)nc3ccccc23)CC(C)O1 (centres undefined)
661 | CCCNC(=O)c1nn(-c2ccc(OC)cc2)c(OC)cc1=O
787 | Cc1cccc(CC(=O)N2C[C@@H]3C[C@H](NC(=O)c4cccs4)[C@H]2C3)c1

RP-LC retention time [s] | Compound
630 | Cc1cc(NC(=O)C2CCN(C(=O)c3ccco3)CC2)no1
865 | CCc1ccc(C2=C(C)C(N3CCCN(C(=O)NC4CCCC4)CC3)=NS2(=O)=O)cc1
1140 | COc1ccc(NS(=O)(=O)c2c(C)sc(C)c2-c2cc(C(F)(F)F)on2)c(OC)c1
774 | COCCNC(=O)C1CCN(c2nc3ccc(-c4cccs4)nc3s2)CC1
620 | CNC(=O)[C@@H](NC(=O)[C@H](CC(C)C)[C@H](O)C(=O)NO)C(C)(C)C
622 | Cn1c(N2CCN(C(=O)c3ccccc3Cl)CC2)cc(=O)n(C)c1=O
947 | Cc1[nH]c(-c2ccc(Cl)cc2)cc1C(=O)NC1CCCC1
680 | CCCCN1CN=C(Nc2nc(C)c3ccccc3n2)NC1
612 | CN1CCC(NC(=O)C2CCc3sc(C(=O)N4CCCCCC4)cc3C2)CC1 (centres undefined)
728 | CCOc1ccc(C(c2c(O)cc(C)n(CCOC)c2=O)N2CCN(c3ccccn3)CC2)cc1 (centres undefined)
909 | COc1ccc(Cn2nc3c(S(=O)(=O)N4CCCCCC4)cccn3c2=O)cc1
713 | COc1ccccc1CNC(=O)CSc1ccc(-c2ccccn2)nn1
660 | CC(C)C(=O)NCC12CCCC=C1N(C)C(=O)CC2 (centres undefined)
814 | COc1ccc(CNC(=O)N2CCC(COCc3ccccc3)CC2)cc1OC
1200 | CCN(C(=O)c1ccc2c(c1)OCO2)c1nc(-c2ccccc2)cs1
714 | Cc1cc2nc(C(F)(F)F)c(=O)n(C(C)C(=O)NCCCN3CCCC3)c2cc1C (centres undefined)
713 | COc1ncccc1CNC(=O)NC1CCCCC1
885 | CCc1ccc(NC(=O)Cn2ccc3ccc(-c4nnc(C)o4)cc32)cc1
1020 | CCCCC(=O)O[C@]1(C(=O)CO)CC[C@H]2[C@@H]3CCC4=CC(=O)CC[C@]4(C)[C@H]3[C@@H](O)C[C@@]21C
695 | COc1ccc(CNC(=O)c2cn3cccc(C)c3n2)cc1
